# Experimental data taken from PubChem BioAssay AID180 (DTP/NCI, 2004).
# Values joined by “and” are separate entries in the source; they are usually repeats but may differ in a detail not shown here. Identical values can stand only once.
# Test system: BDF1 mice, Adenocarcinoma 755 s.c., tumor weight T/C
# Experiment: NCI In Vivo Anticancer Drug Screen. Data for tumor model Adenocarcinoma 755 (subcutaneous) in B6D2F1 (BDF1) mice
# Details: endpoint: mean tumor weight, higher = larger tumour
# In short: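 Values express treated (T) relative to vehicle-dosed control (C) animals, based on survival or tumour size measured after compound treatment of mice bearing a transplanted tumour.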
# [1] = dose: 15.0 mg/kg/injection, schedule: Q01DX011 (ip), vehicle: carboxymethylcellulose (CMC)
# [2] = dose: 60.0 mg/kg/injection, schedule: Q01DX011 (ip), vehicle: carboxymethylcellulose (CMC)
# [3] = dose: 31.0 mg/kg/injection, schedule: Q01DX011 (ip), vehicle: methylcellulose (MC)
# [4] = dose: 62.0 mg/kg/injection, schedule: Q01DX011 (ip), vehicle: methylcellulose (MC)
# [5] = dose: 125.0 mg/kg/injection, schedule: Q01DX011 (ip), vehicle: methylcellulose (MC)
# [6] = dose: 250.0 mg/kg/injection, schedule: Q01DX011 (ip), vehicle: methylcellulose (MC)
# [7] = dose: 9.0 mg/kg/injection, schedule: Q01DX011 (ip), vehicle: carboxymethylcellulose (CMC)
# [8] = dose: 25.0 mg/kg/injection, schedule: Q01DX011 (ip), vehicle: methylcellulose (MC)
# [9] = dose: 3.0 mg/kg/injection, schedule: Q01DX011 (ip), vehicle: methylcellulose (MC)
compound,measurement,setting,value
C[C@@H]1CN(C(=O)CCOS(C)(=O)=O)[C@@H](C)CN1C(=O)CCOS(C)(=O)=O,T/C,"dose: 4.0 mg/kg/injection, schedule: Q01DX011 (ip), vehicle: saline",95 % of control
same,T/C,"dose: 8.0 mg/kg/injection, schedule: Q01DX011 (ip), vehicle: saline",65 % of control
same,T/C,"dose: 9.4 mg/kg/injection, schedule: Q01DX011 (ip), vehicle: carboxymethylcellulose (CMC)",104 % of control
same,T/C,[1],61 % of control
same,T/C,"dose: 16.0 mg/kg/injection, schedule: Q01DX011 (ip), vehicle: saline",60 % of control
same,T/C,"dose: 30.0 mg/kg/injection, schedule: Q01DX011 (ip), vehicle: carboxymethylcellulose (CMC)",32 % of control
same,T/C,"dose: 33.0 mg/kg/injection, schedule: Q01DX011 (ip), vehicle: carboxymethylcellulose (CMC)",21 % of control
same,T/C,"dose: 33.0 mg/kg/injection, schedule: Q01DX011 (ip), vehicle: saline",52 % of control
same,T/C,"dose: 37.5 mg/kg/injection, schedule: Q01DX011 (ip), vehicle: carboxymethylcellulose (CMC)",59 % of control and 62 % of control
same,T/C,"dose: 50.0 mg/kg/injection, schedule: Q01DX011 (ip), vehicle: carboxymethylcellulose (CMC)",27 % of control
same,T/C,"dose: 50.0 mg/kg/injection, schedule: Q01DX011 (ip), vehicle: saline",15 % of control
same,T/C,[2],5 % of control
same,T/C,"dose: 75.0 mg/kg/injection, schedule: Q01DX011 (ip), vehicle: carboxymethylcellulose (CMC)",9 % of control and 15 % of control and 23 % of control
same,T/C,"dose: 112.5 mg/kg/injection, schedule: Q01DX011 (ip), vehicle: carboxymethylcellulose (CMC)",10 % of control
same,T/C,"dose: 120.0 mg/kg/injection, schedule: Q01DX011 (ip), vehicle: carboxymethylcellulose (CMC)",4 % of control
CCN(CC)c1nc(SCc2ccc(Cl)cc2Cl)ncc1C,T/C,"dose: 15.0 mg/kg/injection, schedule: Q01DX011 (ip), vehicle: methylcellulose (MC)",56 % of control
same,T/C,[3],89 % of control
same,T/C,[4],71 % of control
same,T/C,[5],61 % of control
same,T/C,[6],54 % of control
CC1=C(O)c2ccccc2C(=O)C1=O,T/C,"dose: 25.0 mg/kg/injection, schedule: Q01DX011 (ip), vehicle: other",106 % of control
same,T/C,"dose: 50.0 mg/kg/injection, schedule: Q01DX011 (ip), vehicle: other",84 % of control
same,T/C,"dose: 100.0 mg/kg/injection, schedule: Q01DX011 (ip), vehicle: other",96 % of control
CS(=O)(=O)OCCCCCOS(C)(=O)=O,T/C,"dose: 4.5 mg/kg/injection, schedule: Q01DX011 (ip), vehicle: carboxymethylcellulose (CMC)",110 % of control
same,T/C,[7],86 % of control
same,T/C,"dose: 18.0 mg/kg/injection, schedule: Q01DX011 (ip), vehicle: carboxymethylcellulose (CMC)",67 % of control
same,T/C,[8],11 % of control
same,T/C,"dose: 37.0 mg/kg/injection, schedule: Q01DX011 (ip), vehicle: carboxymethylcellulose (CMC)",3 % of control
CCCCn1cnc2c(SC)nc(N)nc21,T/C,"dose: 3.8 mg/kg/injection, schedule: Q01DX011 (ip), vehicle: carboxymethylcellulose (CMC)",95 % of control
same,T/C,"dose: 7.5 mg/kg/injection, schedule: Q01DX011 (ip), vehicle: carboxymethylcellulose (CMC)",49 % of control
same,T/C,[7],79 % of control
same,T/C,"dose: 13.0 mg/kg/injection, schedule: Q01DX011 (ip), vehicle: carboxymethylcellulose (CMC)",69 % of control
same,T/C,[1],30 % of control
same,T/C,"dose: 20.0 mg/kg/injection, schedule: Q01DX011 (ip), vehicle: carboxymethylcellulose (CMC)",44 % of control
same,T/C,[2],3 % of control and 4 % of control
same,T/C,"dose: 115.0 mg/kg/injection, schedule: Q01DX011 (ip), vehicle: carboxymethylcellulose (CMC)",2 % of control and 3 % of control
CC(=O)[C@H]1CC[C@H]2[C@@H]3CCC4=CC(=O)CC[C@]4(C)[C@H]3CC[C@]12C,T/C,"dose: 250.0 mg/kg/injection, schedule: Q01DX011 (sc), vehicle: steriod suspending solution",97 % of control
same,T/C,"dose: 500.0 mg/kg/injection, schedule: Q01DX011 (sc), vehicle: steriod suspending solution",46 % of control
CCCCNc1nc(N)nc2c1nnn2CCCC,T/C,[4],54 % of control
same,T/C,[5],78 % of control
same,T/C,[6],45 % of control
CC(C)CCCCCCCCCCCCC(=O)NCC(=O)NC1C(O)C(O)C(Nc2ncnc3nc[nH]c23)OC1C(O)CO (stereo unspecified),T/C,"dose: 0.11 mg/kg/injection, schedule: Q## X000 (ip), vehicle: carboxymethylcellulose (CMC)",62 % of control
same,T/C,"dose: 0.22 mg/kg/injection, schedule: Q01DX011 (ip), vehicle: carboxymethylcellulose (CMC)",65 % of control
same,T/C,"dose: 0.22 mg/kg/injection, schedule: Q## X000 (ip), vehicle: carboxymethylcellulose (CMC)",41 % of control
same,T/C,"dose: 0.45 mg/kg/injection, schedule: Q01DX011 (ip), vehicle: carboxymethylcellulose (CMC)",29 % of control
same,T/C,"dose: 0.45 mg/kg/injection, schedule: Q## X000 (ip), vehicle: carboxymethylcellulose (CMC)",12 % of control
same,T/C,"dose: 0.9 mg/kg/injection, schedule: Q01DX011 (ip), vehicle: carboxymethylcellulose (CMC)",5 % of control
Nc1nc(Cl)c2[nH]cnc2n1,T/C,[3],60 % of control
same,T/C,[4],13 % of control
same,T/C,[5],4 % of control
Nc1nc(SCc2ccccc2)c2ncn(C3OC(CO)C(O)C3O)c2n1 (stereo unspecified),T/C,[8],10 % of control
same,T/C,"dose: 50.0 mg/kg/injection, schedule: Q01DX011 (ip), vehicle: methylcellulose (MC)",7 % of control
same,T/C,"dose: 75.0 mg/kg/injection, schedule: Q01DX011 (ip), vehicle: methylcellulose (MC)",8 % of control
same,T/C,"dose: 100.0 mg/kg/injection, schedule: Q01DX011 (ip), vehicle: methylcellulose (MC)",6 % of control
Cc1cnc(Cl)nc1Sc1nc(N)nc2nc[nH]c12,T/C,"dose: 0.5 mg/kg/injection, schedule: Q01DX011 (ip), vehicle: methylcellulose (MC)",56 % of control
same,T/C,"dose: 0.75 mg/kg/injection, schedule: Q01DX011 (ip), vehicle: carboxymethylcellulose (CMC)",31 % of control
same,T/C,"dose: 1.0 mg/kg/injection, schedule: Q01DX011 (ip), vehicle: carboxymethylcellulose (CMC)",31 % of control and 38 % of control
same,T/C,"dose: 1.0 mg/kg/injection, schedule: Q01DX011 (ip), vehicle: methylcellulose (MC)",52 % of control
same,T/C,"dose: 1.5 mg/kg/injection, schedule: Q01DX011 (ip), vehicle: carboxymethylcellulose (CMC)",11 % of control
same,T/C,"dose: 3.0 mg/kg/injection, schedule: Q01DX011 (ip), vehicle: carboxymethylcellulose (CMC)",8 % of control and 11 % of control
same,T/C,[9],35 % of control
same,T/C,"dose: 6.0 mg/kg/injection, schedule: Q01DX011 (ip), vehicle: carboxymethylcellulose (CMC)",8 % of control
CCCCC(CCCC)(C(=O)OCC)C(=O)OCC,T/C,"dose: 40.6 mg/kg/injection, schedule: Q01DX011 (ip), vehicle: methylcellulose (MC)",65 % of control
same,T/C,"dose: 81.25 mg/kg/injection, schedule: Q01DX011 (ip), vehicle: methylcellulose (MC)",63 % of control
same,T/C,"dose: 162.5 mg/kg/injection, schedule: Q01DX011 (ip), vehicle: methylcellulose (MC)",52 % of control
Fc1ccccc1CSc1ncnc2c1ncn2C1CCCCO1 (stereo unspecified),T/C,"dose: 30.0 mg/kg/injection, schedule: Q01DX011 (ip), vehicle: methylcellulose (MC)",21 % of control
Nc1nc(=S)c2ncn(C3CCCC3)c2[nH]1,T/C,"dose: 3.1 mg/kg/injection, schedule: Q01DX011 (ip), vehicle: methylcellulose (MC)",37 % of control
same,T/C,"dose: 6.2 mg/kg/injection, schedule: Q01DX011 (ip), vehicle: methylcellulose (MC)",8 % of control
CC1CN1P(=O)(OCCC#N)N1CC1C (stereo unspecified),T/C,"dose: 28.0 mg/kg/injection, schedule: Q01DX011 (ip), vehicle: saline",90 % of control
same,T/C,"dose: 56.0 mg/kg/injection, schedule: Q01DX011 (ip), vehicle: saline",104 % of control
same,T/C,"dose: 113.0 mg/kg/injection, schedule: Q01DX011 (ip), vehicle: saline",77 % of control
same,T/C,"dose: 225.0 mg/kg/injection, schedule: Q01DX011 (ip), vehicle: saline",10 % of control
C[C@]12C=CC(=O)C=C1[C@@H](F)C[C@@H]1[C@@H]2[C@@H](O)C[C@@]2(C)[C@H]1CC[C@]2(O)C(=O)CO,T/C,[9],63 % of control and 64 % of control
same,T/C,"dose: 3.0 mg/kg/injection, schedule: Q01DX011 (sc), vehicle: steriod suspending solution",51 % of control
same,T/C,"dose: 6.0 mg/kg/injection, schedule: Q01DX011 (ip), vehicle: methylcellulose (MC)",41 % of control and 43 % of control
same,T/C,"dose: 6.0 mg/kg/injection, schedule: Q01DX011 (sc), vehicle: steriod suspending solution",53 % of control
same,T/C,"dose: 12.0 mg/kg/injection, schedule: Q01DX011 (ip), vehicle: methylcellulose (MC)",37 % of control and 41 % of control
same,T/C,"dose: 12.0 mg/kg/injection, schedule: Q01DX011 (sc), vehicle: steriod suspending solution",46 % of control
same,T/C,"dose: 24.0 mg/kg/injection, schedule: Q01DX011 (ip), vehicle: methylcellulose (MC)",30 % of control and 40 % of control
same,T/C,"dose: 24.0 mg/kg/injection, schedule: Q01DX011 (sc), vehicle: steriod suspending solution",30 % of control
same,T/C,"dose: 48.0 mg/kg/injection, schedule: Q01DX011 (sc), vehicle: steriod suspending solution",23 % of control
